According to publication PMC10354055, “An optimized Nurr1 agonist provides disease-modifying effects in Parkinson’s disease models” (Nature Communications, 2023):
Several values for one entry are separate records, joined by “and”; a condition that tells them apart may be missing. Equal values may be shown once. Read-outs that look alike come from different tables or passages of the source.

Columns and labels:
[1] = BBB permeability assay, plasma and brain LC-MS/MS after oral administration; assay type: in vivo, rat;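 on plasma: oral dosing solution 2 mg/mL in saline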
Procedure: Final dose of […] 4A7C-301 dissolved in saline was orally administrated to SD rats (male, 7-9 weeks, n = 3 per group). To measure the 4A7C-301 concentration in the brain, rats were fully exsanguinated to remove residual blood prior to brain collection. Brain and blood samples were collected at 0.25, 0.5, 1, 2, 4, 6, 8, and 24 h after administration. A robust LC-MS/MS method was developed with the lower limit of quantification (LLOQ) of 1 ng/mL and 0.5 ng/mL for the quantification of 4A7C-301 in plasma and brain, respectively. The accuracy of all accepted QC samples of 4A7C-301 at low, middle, and high concentration levels met the acceptance criteria. Isolated brains were homogenized in PBS as brain weight (g) to PBS volume (mL) ratio 1:3. The desired serial concentrations of working solutions were achieved by diluting stock solution of analyte with 50% acetonitrile in water solution. 5 µL of working solutions (5, 10, 20, 50, 100, 500, 1000, 5000 ng/mL) were added to 50 μl of male SD rat blank brain homogenate to achieve calibration standards of 0.5 ~ 500 ng/mL (0.5, 1, 2, 5, 10, 50, 100, 500 ng/mL) in a total volume of 55 μl. Four quality control samples at 1.5 ng/mL, 3 ng/mL, 50 ng/mL and 400 ng/mL for brain homogenate were prepared independently of those used for the calibration curves. These QC samples were prepared on the day of analysis in the same way as calibration standards. 55 μl of standards, 55 μl of QC samples and 55 μl of unknown samples (50 µL of brain homogenate with 5 µL of blank solution) were added to 200 μl of acetonitrile containing IS mixture for precipitating protein, respectively. Then the samples were vortexed for 30 seconds. After centrifugation at 4 °C, 4000 x g for 15 min, the supernatant was diluted 5 times with water. 25 µl of diluted supernatant was injected into the LC-MS/MS system (AB API 5500 + LC-MS/MS instruments (Serial No. EX224682008)) for quantitative analysis. To measure the 4A7C-301 concentration in the plasma, serum samples were obtained from the collected blood and analyzed by LC-MS/MS system as indicated above.

Nurr1-LBD = biological target: T1, Nurr1-LBD (Mus musculus, UniProt Q06219); experiment: Luciferase reporter assay, Nurr1-LBD, MN9D cells; assay type: cell-based
T1 construct: transfected with pCMV-fNurr1, pGAL-Nurr1(LBD), pGAL-Nor1(LBD) or pGAL-Nur77(LBD) and reporter construct; expressed in transfected cells; host or cells: SK-N-BE(2)C (human neuroblastoma), N27-A (rat dopaminergic), MN9D (murine dopaminergic)
T1 sequence (Q06219 360-595 limits assumed): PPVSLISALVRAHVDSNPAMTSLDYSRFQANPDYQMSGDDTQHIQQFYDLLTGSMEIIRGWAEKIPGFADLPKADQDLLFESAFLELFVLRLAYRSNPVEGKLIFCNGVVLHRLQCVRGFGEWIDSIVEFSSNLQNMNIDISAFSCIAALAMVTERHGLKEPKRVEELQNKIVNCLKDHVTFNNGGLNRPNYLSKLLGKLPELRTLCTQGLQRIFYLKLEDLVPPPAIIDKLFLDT
From the text: (§1) Nurr1 transactivity was normalized to β-galactosidase activity.

full-length Nurr1 = biological target: T2, full-length Nurr1 (Mus musculus, UniProt Q06219); experiment: Luciferase reporter assay, full-length Nurr1, MN9D cells; assay type: cell-based
T2 construct: Luciferase assays using Nurr1-LBD (c) or full-length Nurr1 (d) in SK-N-BE(2)C cells; expressed in transfected cells; host or cells: SK-N-BE(2)C (human neuroblastoma); MN9D (murine dopaminergic)
T2 sequence (Q06219 whole entry, the tested form may be a part): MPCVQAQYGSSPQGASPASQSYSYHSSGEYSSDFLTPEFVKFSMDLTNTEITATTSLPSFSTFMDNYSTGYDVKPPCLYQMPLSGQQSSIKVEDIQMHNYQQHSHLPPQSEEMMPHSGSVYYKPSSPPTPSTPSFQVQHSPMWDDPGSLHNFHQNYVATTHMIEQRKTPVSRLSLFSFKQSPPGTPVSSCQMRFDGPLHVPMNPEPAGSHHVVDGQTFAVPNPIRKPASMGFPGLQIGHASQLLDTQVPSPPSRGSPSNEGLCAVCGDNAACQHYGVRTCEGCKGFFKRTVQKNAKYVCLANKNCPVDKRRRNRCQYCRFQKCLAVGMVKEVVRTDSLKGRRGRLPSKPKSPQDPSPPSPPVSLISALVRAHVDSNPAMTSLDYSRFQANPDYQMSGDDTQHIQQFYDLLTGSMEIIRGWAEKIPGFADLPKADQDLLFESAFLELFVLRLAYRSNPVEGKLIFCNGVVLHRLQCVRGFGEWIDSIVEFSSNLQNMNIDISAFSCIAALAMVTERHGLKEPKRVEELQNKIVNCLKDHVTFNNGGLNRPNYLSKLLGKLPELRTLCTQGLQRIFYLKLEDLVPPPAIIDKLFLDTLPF
From the text: as §1

MPTP-induced male mice = experiment: IHC/stereology of TH+ fibers, TH+ DA neurons and NeuN+ neurons, MPTP-induced mice; assay type: in vivo, mouse
Procedure: MPTP (Sigma-Aldrich) was intraperitoneally (i.p.) injected (30 mg/kg) for 5 days (Day 1-5). […] To test dyskinetic involuntary behavior, an L-DOPA injected group was included, which received 50 mg/kg of L-DOPA and 15 mg/kg of benserazide (Sigma-Aldrich) (i.p.) for 16 days (Day 1–16). All compounds were administered 6 h post-MPTP injection to avoid any effect of compounds on the MPTP metabolism in the brain. Motor and non-motor related behavior tests were performed on the following days as described in Fig. 4a in an assessor- and observer-blinded fashion. Pre-training and baseline setup for motor-related behaviors were performed 3 days prior to the injections. Mice were sacrificed and subjected to immunohistochemistry. Mice were housed at the Animal Care Facilities of McLean Hospital under a 12-h light/12-h dark cycle, ambient temperature and humidity. Animals were handled in accordance with McLean Hospital’s Institutional Animal Care and Use Committee (Protocol #: 2015N000002) and followed National Institutes of Health guidelines.
Images were acquired using a KEYENCE microscope and quantified as the number or optical density of immunoreactive cells using ImageJ software.
The numbers of TH^+ DA neurons, NeuN^+ neurons, pS129 αSyn^+ cells in the SN and Iba-1^+ microglia in the SN and striatum were stereologically counted in six coronal sections (30 µm thickness) taken every 6th section (180 µm intervals) for each brain. The boundaries of the SN and striatum were delimited at low magnification (4X) to estimate each total area. Immunoreactive cells were counted with images taken at high magnification (×40) by a single blinded investigator. The group mean of the total number of immunoreactive cells from each brain was transformed as percentage of the number in the control group (%). For AAV-αSyn-induced mice, the group mean of the total number of cells in the ipsilateral side was transformed as a percentage of that observed in the contralateral side.

[2] = time 00:15:00, individual replicates
[3] = time 0:30:00, individual replicates
[4] = time 1:00:00, individual replicates
[5] = time 2:00:00, individual replicates
[6] = time 4:00:00, individual replicates
[7] = time 6:00:00, individual replicates
[8] = time 8:00:00, individual replicates
[9] = time 24:00:00, individual replicates

Q: Which results are given for `CCN1CCN(c2cc(N3CCN(CC)CC3)nc(NCCNc3ccnc4cc(Cl)ccc34)n2)CC1` [4A7C-301, N^1-(4,6-bis(4-ethylpiperazin-1-yl)pyrimidin-2-yl)-N^2-(7-chloroquinolin-4-yl)ethane-1,2-diamine]?
A: brain permeability (in words) ([1]; SD rats, oral, 20 mg/kg, plasma and brain homogenates): penetrated into the brain well; concentration at […] ([1]; male, SD, rat, brain, oral, 2 mg/mL, time 00:15:00, individual replicates, read-out: Brain): 0 ng/g; concentration at 0.5 h ([1]; male, SD, rat, brain, oral, 2 mg/mL, time 0:30:00, individual replicates, read-out: Brain): 0 ng/g; concentration at 8 h ([1]; male, SD, rat, brain, oral, 2 mg/mL, time 8:00:00, individual replicates): 28.7 ng/g; concentration at […] ([1]; male, SD, rat, plasma, oral, 2 mg/mL, time 00:15:00, individual replicates, read-out: Plasma): 0 ng/mL; concentration at 0.5 h ([1]; male, SD, rat, plasma, oral, 2 mg/mL, time 0:30:00, individual replicates, read-out: Plasma): 0 ng/mL; Brain [1, 2]: 0 ng/g; Plasma [1, 2]: 0 ng/mL; Brain [1, 3]: 0 ng/g; Plasma [1, 3]: 0 ng/mL; B/P ratio [1, 4]: 0.033 and 0.167 and 0.126; Brain [1, 4]: 3.39 ng/g and 9.12 ng/g and 2.65 ng/g; Plasma [1, 4]: 20.3 ng/mL and 72.3 ng/mL and 80.8 ng/mL; B/P ratio [1, 5]: 0.395 and 0.077 and 0.505; Brain [1, 5]: 7.24 ng/g and 13.5 ng/g and 6 ng/g; Plasma [1, 5]: 94 ng/mL and 26.7 ng/mL and 15.2 ng/mL; B/P ratio [1, 6]: 0.137 and 0.126 and 1.648; Brain [1, 6]: 27.2 ng/g and 13.5 ng/g and 7.16 ng/g; Plasma [1, 6]: 216 ng/mL and 8.18 ng/mL and 52.2 ng/mL; B/P ratio [1, 7]: 0.074 and 0.166 and 2.055; Brain [1, 7]: 19.9 ng/g and 24 ng/g and 4.36 ng/g; Plasma [1, 7]: 120 ng/mL and 11.7 ng/mL and 58.6 ng/mL; B/P ratio [1, 8]: 0.112 and 3.845 and 0.261; Brain [1, 8]: 16.8 ng/g and 20.2 ng/g; Plasma [1, 8]: 7.47 ng/mL and 64.3 ng/mL and 180 ng/mL; B/P ratio [1, 9]: 10.245 and 0.957 and 6.289; Brain [1, 9]: 61.6 ng/g and 20 ng/g and 36 ng/g; Plasma [1, 9]: 64.4 ng/mL and 3.18 ng/mL and 3.51 ng/mL; Luciferase activity (fold) (Nurr1-LBD; Fig. S3a, 0.001 µM): 1.103 fold and 1.1109 fold and 1.11 fold; Luciferase activity (fold) (Nurr1-LBD; Fig. S3a, 0.01 µM): 2.094 fold and 2.1057 fold and 1.929 fold; Luciferase activity (fold) (Nurr1-LBD; Fig. S3a, 0.1 µM): 4.339 fold and 4.261 fold and 4.17 fold; Luciferase activity (fold) (Nurr1-LBD; Fig. S3a, 1 µM): 7.077 fold and 6.781 fold and 6.645 fold; Luciferase activity (fold) (Nurr1-LBD; Fig. S3a, 10 µM): 6.849 fold and 6.689 fold and 7.128 fold; Luciferase activity (fold) (Nurr1-LBD; Fig. S1d, conc. 1 µM, replicates): 6.4567 fold and 6.799 fold and 6.563 fold; Luciferase activity (fold) (Nurr1-LBD; Fig. S1d, conc. 10 µM, replicates): 6.943 fold and 6.5332 fold and 6.663 fold; Luciferase activity (fold) (Nurr1-LBD; Fig. S1d, conc. 10-1 µM, replicates): 3.61 fold and 3.7661 fold and 3.609 fold; Luciferase activity (fold) (Nurr1-LBD; Fig. S1d, conc. 10-2 µM, replicates): 1.993 fold and 2.235 fold and 2.074 fold; Luciferase activity (fold) (Nurr1-LBD; Fig. S1d, conc. 10-3 µM, replicates): 1.142 fold and 1.201 fold and 1.251 fold; potency to activate Nurr1 relative to CQ (Nurr1-LBD; MN9D cells, Supplementary Fig. 3a,b): approximately 50 fold; Luciferase activity (fold) (full-length Nurr1; Fig. S1e, conc. 1 µM, replicates): 4.17 fold and 4.227 fold and 4.16 fold; Luciferase activity (fold) (full-length Nurr1; Fig. S1e, conc. 10 µM, replicates): 4.281 fold and 4.08 fold and 4.219 fold; Luciferase activity (fold) (full-length Nurr1; Fig. S1e, conc. 10-1 µM, replicates): 2.744 fold and 2.808 fold and 2.876 fold; Luciferase activity (fold) (full-length Nurr1; Fig. S1e, conc. 10-2 µM, replicates): 1.103 fold and 1.099 fold and 1.116 fold; Luciferase activity (fold) (full-length Nurr1; Fig. S1e, conc. 10-3 µM, replicates): 1.064 fold and 1.034 fold and 1.025 fold; Luciferase activity (fold) (full-length Nurr1; Fig. S3b, 0.001 µM): 1.073 fold and 1.1005 fold and 1.0596 fold; Luciferase activity (fold) (full-length Nurr1; Fig. S3b, 0.01 µM): 1.226 fold and 1.227 fold and 1.236 fold; Luciferase activity (fold) (full-length Nurr1; Fig. S3b, 0.1 µM): 2.808 fold and 2.776 fold and 2.787 fold; Luciferase activity (fold) (full-length Nurr1; Fig. S3b, 1 µM): 4.245 fold and 4.359 fold and 4.273 fold; Luciferase activity (fold) (full-length Nurr1; Fig. S3b, 10 µM): 4.295 fold and 4.314 fold and 4.305 fold; TH+ neurons in SNpc (% of control) (MPTP-induced male mice; Figure 4j, MPTP-induced mice, individual animal values): 63.18 % of control and 108.74 % of control and 134.92 % of control and 132.65 % of control and 112.51 % of control and 66.45 % of control and 53.87 % of control; NeuN+ neurons in SNpc (% of control) (MPTP-induced male mice; Figure 4k, MPTP-induced mice, individual animal values): 85.48 % of control and 97.85 % of control and 98.38 % of control and 115.18 % of control; TH fiber density in STR (% of control) (MPTP-induced male mice; Figure 4h, MPTP-induced mice, individual animal values): 116.18 % of control and 48.63 % of control and 93.47 % of control and 82.29 % of control and 106.49 % of control and 100.23 % of control and 91.26 % of control; TH+ fibers in STR, TH+ DA neurons and NeuN+ neurons in SN (in words) (MPTP-induced male mice; compared to MPTP only group): significantly retained
